Measured values reported in ChEMBL document CHEMBL1268867, “ATPases as drug targets: insights from heat shock proteins 70 and 90” (J Med Chem, 2010).

Assays:
[1] = Binding affinity to Hsp70 nucleotide binding domain
[2] = target: Heat shock cognate 71 kDa protein (Homo sapiens, UniProt P11142); experiment: Binding affinity to human Hsc70 by isothermal calorimetry assay
[3] = target: Heat shock cognate 71 kDa protein (Bos taurus, UniProt P19120); experiment: Binding affinity to bovine Hsc70 by filter binding assay
Sequence of Heat shock cognate 71 kDa protein (Bos taurus, UniProt P19120) (P19120 whole entry): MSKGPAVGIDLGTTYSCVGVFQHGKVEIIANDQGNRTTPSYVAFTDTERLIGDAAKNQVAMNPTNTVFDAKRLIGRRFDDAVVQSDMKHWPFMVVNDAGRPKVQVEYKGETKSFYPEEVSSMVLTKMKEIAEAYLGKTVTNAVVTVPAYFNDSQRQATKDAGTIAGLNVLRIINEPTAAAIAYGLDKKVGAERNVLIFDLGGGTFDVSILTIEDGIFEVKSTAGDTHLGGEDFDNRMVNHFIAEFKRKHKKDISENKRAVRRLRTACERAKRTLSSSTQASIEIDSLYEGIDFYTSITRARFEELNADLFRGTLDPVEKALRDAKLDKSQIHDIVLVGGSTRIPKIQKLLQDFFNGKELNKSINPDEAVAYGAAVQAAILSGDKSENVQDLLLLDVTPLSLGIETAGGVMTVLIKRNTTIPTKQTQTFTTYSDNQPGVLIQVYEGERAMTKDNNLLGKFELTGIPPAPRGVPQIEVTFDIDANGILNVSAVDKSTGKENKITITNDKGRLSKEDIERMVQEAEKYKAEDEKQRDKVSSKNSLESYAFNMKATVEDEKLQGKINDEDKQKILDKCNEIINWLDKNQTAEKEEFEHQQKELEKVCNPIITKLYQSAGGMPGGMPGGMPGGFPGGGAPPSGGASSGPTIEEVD

Sequence of Heat shock cognate 71 kDa protein (Homo sapiens, UniProt P11142) (P11142 whole entry): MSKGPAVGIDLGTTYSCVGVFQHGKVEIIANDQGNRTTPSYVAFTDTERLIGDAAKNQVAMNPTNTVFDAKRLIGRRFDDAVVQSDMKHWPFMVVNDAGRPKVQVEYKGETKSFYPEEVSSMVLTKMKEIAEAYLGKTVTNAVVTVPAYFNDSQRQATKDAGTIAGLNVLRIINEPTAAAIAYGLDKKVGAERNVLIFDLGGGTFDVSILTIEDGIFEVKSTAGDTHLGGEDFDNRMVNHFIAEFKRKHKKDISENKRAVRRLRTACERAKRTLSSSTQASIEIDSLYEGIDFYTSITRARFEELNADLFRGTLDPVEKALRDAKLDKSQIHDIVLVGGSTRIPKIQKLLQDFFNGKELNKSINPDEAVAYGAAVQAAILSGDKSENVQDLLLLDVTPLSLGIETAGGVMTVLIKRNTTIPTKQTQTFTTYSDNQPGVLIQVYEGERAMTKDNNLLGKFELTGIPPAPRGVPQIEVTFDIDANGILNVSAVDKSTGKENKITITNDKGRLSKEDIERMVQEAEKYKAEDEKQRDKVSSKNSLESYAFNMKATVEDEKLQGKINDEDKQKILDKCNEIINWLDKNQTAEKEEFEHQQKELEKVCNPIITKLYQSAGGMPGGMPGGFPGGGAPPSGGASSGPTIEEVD

Row | Kd [1] [nM] | Kd [2] [nM] | Kd [3] [nM] | SMILES
1 | 300 |  |  | N#Cc1ccc(COC[C@H]2O[C@@H](n3c(NCc4ccc(Cl)c(Cl)c4)nc4c(N)ncnc43)[C@H](O)[C@@H]2O)cc1
2 |  | 260 | 110 | Nc1ncnc2c1ncn2[C@@H]1O[C@H](COP(=O)(O)OP(=O)(O)O)[C@@H](O)[C@H]1O [ADENOSINE DIPHOSPHATE]
